The IC50 is the concentration that gives 50% inhibition.

One test addresses rat SAPK (isoform β) (Rattus norvegicus, UniProt P49187). The test is described as follows: SAPK FlashPlate Assay (inhibition of cJun phosphorylation). In kind it is biochemical. Particulars: GST-cJun substrate, 30 minutes at 37 °C. As for the experimental part:
"IC50" refers to the concentration of a particular 4- or 5-alkynyloxindole or 4-or 5-alkenyloxindole required to inhibit 50% of cJun phosphorylation, which is a measure of inhibition of SAPK activity. IC50 can be measured, inter alia, using the assay described herein in Example 102.
Human JNK is highly homologous to rat SAPK. To measure the inhibitory activity of test compounds, the compounds were tested in the rat SAPK assay.
For the SAPK assay, purified GST-cJun (a chimeric protein containing cJun, a natural substrate of JNK) was coated on 96 well FlashPlates (New England Nuclear, Boston, MA). Purified rat SAPK (isoform β, Kyriakis et al. supra) was preincubated with preparations containing MEKK-1 and MKK4 for 30 minutes at 37 °C in assay buffer containing 25 mM HEPES, pH 7.5, 150 mM NaCl, 20 mM MgCl2, 2 mM DTT, 0.001% Tween 20, 1 µM ATP freshly added. In the preincubation step, MEKK-1 phosphorylates and activates MKK-4, which in tum phosphorylates and activates SAPK. The activated SAPK was then added to the cJun coated FlashPlates along with ^33P-ATP (0.32 µCi per reaction) and test compounds. The plates were incubated for 30 minutes at 37 °C, then washed with PBS, 0.01% Tween 20, and counted in the Topcount scintillation counter (Packard Instrument Co., Downers Grove, IL). Dilutions of compounds were tested in duplicate in each assay. The percent inhibition of cJun phosphorylation (a measure of inhibition of SAPK activity) was determined by the following formula: [formula] where "test compound" refers to the average counts per minute of the test duplicates, "nonspecific" refers to the average counts per minute when no SAPK was added, and "total" refers to the average counts per minute when no compound was added.

A further test deals with MMP-3. The test is described as follows: MG-63 Cell-Based Assay, MMP-3 release after IL-1β stimulation (ELISA). Particulars: Homo sapiens, MG63 cells, IL-1β stimulated, 24 hours with compound, read-out: IC50 (µM) in MG63 Cells MMP3. The text has this:
(§1) The MG63 cell line, a human osteosarcoma cell line, was purchased from American Type Culture Collection (ATCC; Rockville, MD) and grown in the medium recommended by ATCC. When stimulated with human IL-1β , MG63 cells release matrix metalloproteinase 3 (MMP-3), an AP-1 dependent inflammatory mediator and IL-6, a NF-κB-dependent mediator. In this assay the ability of a test compound to block MMP-3 expression and not block IL-6 expression is an indication that the compound is a selective inhibitor of the AP-1 transcription pathway.
(§2) On day 1 the cells were plated at 2.5X10^4 cells/well in 96 well plates. After 24 hours, dexamethasone (the assay control) (Sigma, St. Louis, MO) and the test compounds were diluted to appropriate concentrations and added to the MG63 cells. The cells were incubated with the compounds for 24 hours after which the supernatants were removed and analyzed by ELISA.
(§3) In the ELISA, 96 well plates were coated with antibody to MMP-3 or IL-6. Supernatants were added to the coated plates and any antigen (MMP-3 or IL-6) in the supernatant bound to the antibody coated on the plates. The plates were then washed with PBS containing 0.05% Tween 20 (Sigma, St. Louis, MO) and the biotinylated secondary antibody was added. This secondary antibody binds to the already bound antigen creating a "sandwich effect". Plates were washed as described above and horseradish peroxidase (HRP)-streptavidin conjugate (Sigma, St. Louis, MO) was added to the plates. HRP-streptavidin bound to the biotin-antibody conjugate. The plates were washed and TMB substrate (Kirkegaard and Perry Labs, Gaithersburg, MD) was added to the wells. This substrate changes color in the presence of HRP-streptavidin. The intensity of the color (measured at 450 nm) is proportional to the amount of MMP-3 or IL-6 produced by the MG63 cells upon exposure to IL-1β and the test compounds. Optical density values were converted to concentration (pg/ml or Units/ml) based on a standard curve included in the assay. IC50 values for each test compound were determined from the linear regression of a plot of the logarithm of the concentration of compound versus amount of MMP-3 or IL-6 secreted. (The MMP-3 antibodies were prepared in-house using standard hybridoma technology and the IL-6 antibodies were obtained from either Genzyme, Cambridge, MA or Pharmingen, San Diego, CA.).
(In general: An ELISA detects its analyte on a solid surface through an enzyme-linked reagent.)

The test system of test [1] is IL-6. The test is described as follows: MG-63 Cell-Based Assay, IL-6 release after IL-1β stimulation (ELISA). Particulars: Homo sapiens, MG63 cells, IL-1β stimulated, 24 hours with compound, read-out: IC50 (µM) in MG63 Cells IL6.
Text: as §1, §2, §3

Another test deals with TNF. Briefly: U937 Cell-Based Assay, TNF release after LPS stimulation (ELISA). Particulars: Homo sapiens, U-937; U937 cells, PMA then LPS stimulated, 24 hours. As for the experimental part:
(§4) The U937 cells, a human monocyte/macrophage cell line, was obtained from the ATTC and grown in the recommended medium. These cells when stimulated with lipopolysaccharide (LPS) release TNF, another inflammatory mediator implicated in the JNK pathway (Swantek et al., supra) and IL-6. In this assay the ability of a test compound to block TNF expression is evaluated.
(§5) The assay is very similar to the MG63 cell based assay except for the following modifications. The U937 cells were suspension cells but when stimulated with phorbol myristate acetate (PMA) (Sigma, St. Louis, MO) they become adherent. After PMA stimulation the cells were washed in cell culture medium and plated at 1X10^5 cells/well in 96 well plates. The following day the test compounds and dexamethasone control (Sigma, St. Louis, MO) were added to the cells for 1 hour of preincubation. Then the cells were stimulated with LPS (Sigma, St. Louis, MO). After an additional 24 hours of incubation the supematants were removed and assayed for TNF-α and IL-6 by ELISA. The IL-6 ELISA was run as described previously for the MG63 assay. The TNF ELISA was run using a kit supplied by Genzyme (Cambridge, MA).

For test [2], the system named is IL-6. Briefly: U937 Cell-Based Assay, IL-6 release after LPS stimulation (ELISA). Particulars: Homo sapiens, U-937; U937 cells, PMA then LPS stimulated, 24 hours; read-out: IC50 (µM) in U937 Cells IL6. As for the experimental part: as §4, §5

Sequence of rat SAPK (isoform β) (P49187 whole entry, canonical isoform): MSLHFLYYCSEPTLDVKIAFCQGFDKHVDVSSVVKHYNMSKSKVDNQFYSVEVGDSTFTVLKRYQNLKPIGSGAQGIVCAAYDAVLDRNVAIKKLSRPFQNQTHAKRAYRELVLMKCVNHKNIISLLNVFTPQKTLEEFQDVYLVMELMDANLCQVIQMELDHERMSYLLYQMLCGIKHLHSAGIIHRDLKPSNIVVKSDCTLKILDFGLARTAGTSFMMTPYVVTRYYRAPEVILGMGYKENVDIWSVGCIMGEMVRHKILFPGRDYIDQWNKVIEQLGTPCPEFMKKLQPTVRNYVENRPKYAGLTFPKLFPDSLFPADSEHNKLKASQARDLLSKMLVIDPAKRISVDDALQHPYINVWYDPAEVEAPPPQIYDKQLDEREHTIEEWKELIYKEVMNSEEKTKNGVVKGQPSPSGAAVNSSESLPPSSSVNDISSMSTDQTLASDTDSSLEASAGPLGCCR

With `COc1cc[nH]c1/C=C1\C(=O)Nc2cccc(C#CC(O)c3ccsc3)c21` (racemic) [BB, rac-(Z)-1,3-Dihydro-4-[3-hydroxy-3-(thiophen-3-yl)-1-propynyl]-3-[(3-methoxy-1H-pyrrol-2-yl)methylene]-2H-indol-2-one], the IC50 was less than 1 µM at rat SAPK (isoform β); less than 12.5 µM with MMP-3; less than 20 µM in the test with IL-6 [1]; less than 8 µM in the test on TNF; less than 20 µM in the test on IL-6 [2].

Turning to `COc1cc[nH]c1/C=C1\C(=O)Nc2cccc(C#CC(O)c3cccc(OC)c3OC)c21` (racemic) [EE, rac-(Z)-1,3-Dihydro-4-[3-(2,3-dimethoxyphenyl)-3-hydroxy-1-propynyl]-3-[(3-methoxy-1H-pyrrol-2-yl)methylene]-2H-indol-2-one], the half-inhibitory concentration (IC50) was less than 1 µM on rat SAPK (isoform β), less than 12.5 µM in the test on MMP-3 and less than 20 µM with IL-6 [1].

`COc1cc[nH]c1/C=C1\C(=O)Nc2cccc(C#CC(O)c3ccccc3)c21` (racemic) [FFF, rac-(Z)-1,3-Dihydro-4-(3-hydroxy-3-phenyl-1-propynyl)-3-[(3-methoxy-1H-pyrrol-2-yl)methylene]-2H-indol-2-one]: the IC50 against rat SAPK (isoform β) was less than 1 µM; in the test with MMP-3 it was less than 12.5 µM; with IL-6 [1], less than 20 µM.

With `COc1ccc(C(O)C#Cc2cccc3c2/C(=C/c2[nH]ccc2OC)C(=O)N3)cc1` (racemic) [H, rac-(Z)-1,3-Dihydro-4-[3-hydroxy-3-(4-methoxyphenyl)-1-propynyl]-3-[(3-methoxy-1H-pyrrol-2-yl)methylene]-2H-indol-2-one], the IC50 was less than 1 µM against rat SAPK (isoform β), less than 12.5 µM in the test on MMP-3 and less than 20 µM in the test with IL-6 [1].

Regarding `COc1cc[nH]c1/C=C1\C(=O)Nc2cccc(C#CC(O)c3ccc4c(c3)OCO4)c21` (racemic) [N, rac-(Z)-4-[3-(1,3-benzodioxol-5-yl)-3-hydroxy-1-propynyl]-1,3-dihydro-3-[(3-methoxy-1H-pyrrol-2-yl)methylene]-2H-indol-2-one], the IC50 was less than 1 µM against rat SAPK (isoform β); less than 12.5 µM in the test with MMP-3; less than 20 µM in the test with IL-6 [1]; less than 8 µM in the test on TNF; less than 20 µM in the test with IL-6 [2].

For the molecule `COc1cc(C(O)C#Cc2cccc3c2/C(=C/c2[nH]ccc2OC)C(=O)N3)ccc1O` (racemic) [O, rac-(Z)-1,3-Dihydro-4-[3-hydroxy-3-(4-hydroxy-3-methoxyphenyl)-1-propynyl]-3-[(3-methoxy-1H-pyrrol-2-yl)methylene]-2H-indol-2-one], the IC50 in the test on MMP-3 is less than 12.5 µM; in the test with IL-6 [1], less than 20 µM; in the test with TNF it was less than 8 µM; with IL-6 [2], less than 20 µM.

As to `COc1cc[nH]c1/C=C1\C(=O)Nc2cccc(C#CC(O)c3ccc(N(C)C)cc3)c21` (racemic) [R, rac-(Z)-1,3-Dihydro-4-[3-(4-dimethylaminophenyl)-3-hydroxy-1-propynyl]-3-[(3-methoxy-1H-pyrrol-2-yl)methylene]-2H-indol-2-one], the half-inhibitory concentration (IC50) on rat SAPK (isoform β) was less than 1 µM; in the test with MMP-3 it was less than 12.5 µM; in the test with IL-6 [1], less than 20 µM; with TNF, less than 8 µM; in the test on IL-6 [2], 20 µM.

Consider `C#CC(O)c1ccc[nH]1` (centres unmarked) [CC, 3-Hydroxy-3-(1H-pyrrol-2-yl)-1-propyne], for which the IC50 was less than 12.5 µM in the test with MMP-3 and less than 20 µM in the test on IL-6 [1].

Consider `COc1cc[nH]c1/C=C1\C(=O)Nc2cccc(C#Cc3cccnc3)c21` [CCC, (Z)-1,3-Dihydro-3-[(3-methoxy-1H-pyrrol-2-yl)methylene]-4-[(3-pyridinyl)ethynyl]-2H-indol-2-one], for which the IC50 on rat SAPK (isoform β) was less than 1 µM; in the test with MMP-3 it was less than 12.5 µM; in the test on IL-6 [1], greater than 20 µM.

For the molecule `COc1cc[nH]c1/C=C1\C(=O)Nc2cccc(C#Cc3ccccc3)c21` [D, (Z)-1,3-Dihydro-4-(phenylethynyl)-3-[(3-methoxy-1H-pyrrol-2-yl)methylene]-2H-indol-2-one], the IC50 is less than 1 µM against rat SAPK (isoform β), less than 12.5 µM in the test on MMP-3 and 20 µM in the test on IL-6 [1].

Regarding `COc1ccc(C#Cc2cccc3c2/C(=C/c2[nH]ccc2OC)C(=O)N3)cc1` [G, (Z)-1,3-Dihydro-4-[(4-methoxyphenyl)ethynyl]-3-[(3-methoxy-1H-pyrrol-2-yl)methylene]-2H-indol-2-one], the IC50 at rat SAPK (isoform β) is less than 1 µM; in the test on MMP-3 it was less than 12.5 µM; with IL-6 [1], less than 20 µM.

On to `C#CC(O)c1ccc(OC)c(O)c1` (centres unmarked) [GG, 3-Hydroxy-3-(3-hydroxy-4-methoxyphenyl)-1-propyne], for which the IC50 in the test with MMP-3 is less than 12.5 µM; in the test on IL-6 [1], less than 20 µM.

Regarding `COc1cc[nH]c1/C=C1\C(=O)Nc2ccc(NC(=O)Cc3cccs3)c(C#Cc3cccnc3)c21` [III, (Z)-N-[2,3-Dihydro-3-[(3-methoxy-1H-pyrrol-2-yl)methylene]-2-oxo-4-[(3-pyridinyl)ethynyl]-1H-indol-5-yl]-2-thiopheneacetamide], the IC50 was less than 12.5 µM in the test on MMP-3 and 20 µM with IL-6 [1].

For the molecule `C#CC(O)c1ccc(O)cc1` (centres unmarked) [P, 3-Hydroxy-3-(4-hydroxyphenyl)-1-propyne], the IC50 in the test on MMP-3 is less than 12.5 µM; with IL-6 [1], less than 20 µM.

`COc1ccc(/C=C/c2cccc3c2/C(=C/c2[nH]ccc2OC)C(=O)N3)cc1OC` [QQQ, 1,3-Dihydro-4-[(E)-2-(3,4-dimethoxyphenyl)-ethenyl]-(Z)-3-[(3-methoxy-1H-pyrrol-2-yl)methylene]-2H-indol-2-one]: the values for the 50% inhibitory concentration (IC50) at rat SAPK (isoform β), with MMP-3 and in the test on IL-6 [1] were less than 1 µM, less than 12.5 µM and 20 µM, respectively.

Turning to `COc1cc[nH]c1/C=C1\C(=O)Nc2cccc(C#CCOc3ccccc3)c21` [Y, (Z)-1,3-Dihydro-3-[(3-methoxy-1H-pyrrol-2-yl)methylene]-4-(3-phenoxy-1-propynyl)-2H-indol-2-one], the IC50 on rat SAPK (isoform β) was less than 1 µM; with MMP-3 it was less than 12.5 µM; in the test on IL-6 [1] it was less than 20 µM.

As to `C#CC(O)c1cccn1C` (centres unmarked) [Z, 3-Hydroxy-3-(1-methyl-pyrrol-2-yl)-1-propyne], the concentration for half-maximal inhibition (IC50) in the test with MMP-3 is less than 12.5 µM; in the test with IL-6 [1] it was less than 20 µM.

(Values after patent EP1149092B1, “4- AND 5-ALKYNYLOXINDOLES AND 4- AND 5-ALKENYLOXINDOLES” (F. HOFFMANN-LA ROCHE AG, priority 1998, dated 2000).)
